Patent US10377800B2, “Myelin oligodendrocyte glycoprotein (MOG) peptide” (APITOPE TECHNOLOGY (BRISTOL) LIMITED, priority 2013, dated 2019)

Key:
[1] = tested on: MOG-specific hybridoma T cell clones; experiment: Antigen processing independent presentation: peptides presented by live or p-formaldehyde fixed Mgar cells to T cell hybridoma clones, IL-2 production; assay type: cell-based, mice; conditions: FIG. 1; for identification as apitope: detailed study, overlapping peptides in region 25-60 displaced by one amino acid
Text: A panel of 15-mer overlapping peptides spanning rhMOGED was synthesized using standard F-moc chemistry. […]
MOG-specific hybridoma T cell clones were generated by immunisation of DR2+ mice. DR2+ mice were immunised with either a pool of MOG overlapping peptides or rhMOGED in complete Freunds adjuvant (CFA). After 10 days, the spleen and draining lymph nodes were removed, CD4+ T cells were purified and restimulated with antigen/CFA in vitro. A week later, T cells were restimulated in vitro with antigen to increase the number of activated antigen-specific cells.
After 3 days, activated T cells were fused with the thymoma cell line BW 5147. Hybridoma clones were then selected using HAT selection medium and screened for peptide specificity by IL-2 ELISA.
Live or p-formaldehyde fixed Mgar (HLA-DR2+ve) cells were incubated with peptides in serum or in serum alone, together with T cells for 48 hours. The T cell proliferative response was measured by IL-2 production.

I-A^S = target: T1, I-A^S (Mus musculus, UniProt P06345+P14437); conditions: cited from earlier work
T1 sequence (P14437 1-233): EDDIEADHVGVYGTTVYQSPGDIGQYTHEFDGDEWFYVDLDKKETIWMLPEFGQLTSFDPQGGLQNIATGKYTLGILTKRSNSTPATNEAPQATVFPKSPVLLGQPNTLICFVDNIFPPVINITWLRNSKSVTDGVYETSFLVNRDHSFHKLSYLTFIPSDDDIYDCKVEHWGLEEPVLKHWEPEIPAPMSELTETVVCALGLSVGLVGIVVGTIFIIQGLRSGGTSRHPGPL
T1 sequence (P06345 28-263): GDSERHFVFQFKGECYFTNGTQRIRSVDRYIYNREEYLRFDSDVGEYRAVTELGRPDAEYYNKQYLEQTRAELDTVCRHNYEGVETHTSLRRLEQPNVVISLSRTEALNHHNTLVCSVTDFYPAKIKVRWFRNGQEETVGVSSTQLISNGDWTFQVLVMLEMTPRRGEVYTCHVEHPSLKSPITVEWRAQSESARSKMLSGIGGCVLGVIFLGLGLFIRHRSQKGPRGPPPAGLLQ

[2] = administered in solution; Anderton and Wraith (1998); cited from earlier work
DR2 transgenic mice = experiment: MOG-induced EAE model; assay type: in vivo; conditions: for Incidence (EAE) / Mean day of onset (EAE): Pertussis toxin day 0 and 2
Experimental: (§1) To test the capacity of ROK5 to prevent MOG-induced EAE in HLA-DR2 transgenic mice, the disease model was established in this strain of mice. To induce the disease, the encephalitogenic MOG peptide, mouse MOG 35-55 (mMOG35-55) was used. Then, ROK5 was tested in EAE prevention experiments as follows:
Two groups of DR2 transgenic mice were setup, at day zero, animals (n=7) in group “100 μg” received 100 μg mMOG35-55 in Complete Freund's Adjuvant (CFA) (100 μl, s.c., base of the tail injection), animals (n=8) in group “200 μg” received 200 μg mMOG35-55 in CFA. At day zero and day2, all animals received an injection of Pertussis toxin (200 ng in PBS, i.p.). Every day, clinical EAE was scored and animal body weight measured.

HLA-DR2 transgenic mice [3] = experiment: Ex vivo tolerance assay: recall proliferation with MOG 35-55 after peptide pre-treatment and MOG 35-55/CFA challenge; conditions: 100 μg on days -8, -4 and -2; challenge 100 μg MOG 35-55 in CFA day 0; harvest day 10; FIG. 2
Experimental: (§2) HLA-DR2 transgenic mice were immunised with either 100 μg ROK5 (MOG 41-55), 100 μg MOG 35-55 or PBS on days −8, −4 and −2. On day 0, mice were challenged with 100 μg MOG 35-55 by injection in the tail base in combination with CFA.
On day 10, splenocytes and draining lymph nodes were harvested and their respective cell populations isolated and a recall proliferation assay was set up with MOG 35-55. Cells from individual mice were treated separately and data is plotted separately in FIG. 2. For the recall response cells were treated ex vivo with a dose range of MOG35-55 (100, 10, 1, 0.1, 0.01, 0 μg) and proliferation via ^3H-thymidine incorporation determined. Stimulation index (compared to proliferation with no antigen) was calculated for each condition.

splenocytes = experiment: Cytokine profiles of splenocyte supernatants after in vivo ROK5 pre-treatment, MOG35-55 immunisation and in vitro recall; design: species or system mice; conditions: ROK5 pretreatment vs PBS; FIG. 3
Experimental: as §2
The effect of ROK5 pre-treatment on various cytokine profiles was also investigated.

HLA-DR2 transgenic mice [4] = experiment: ROK5 EAE prevention, first experiment (3 pre-treatments); assay type: in vivo; conditions: pretreated 3 times, FIG. 6; for severity of the disease induced by MOG (clinical EAE score): 3 days apart, 100 μg s.c. flank, EAE by 200 μg mMOG35-55
Experimental: as §1
Experiment 1: with 3 ROK5 dose pre-treatments, followed by immunisation with mMOG35-55.
(§3) In each experiment, 10 mice were used per group.
(§4) A first experiment was performed where animals were pretreated 3 times (3 days apart) with either mouse ROK5, human ROK5 or PBS, 100 μg in 100 μl in CFA (s.c. injection in the flank), then all animals were immunised with 200 μg mMOG35-55 in CFA (s.c. injection at the base of the tail) and with 200 ng Pertussis toxin (200 ng in PBS, i.p.) at day zero and day 2.
Every day, clinical EAE was scored and animal body weight measured.

HLA-DR2 transgenic mice [5] = experiment: ROK5 EAE prevention, second experiment (5 pre-treatments); assay type: in vivo; conditions: pretreated 5 times, 3 days apart, 100 μg s.c. flank; EAE by 200 μg mMOG35-55; FIG. 7
Experimental: as §1
Experiment 2: with 5 ROK5 dose pre-treatments, followed by immunisation with mMOG35-55.
as §3
as §4, with “A second” for “A first”, “pretreated 5” for “pretreated 3”, “either” for “either mouse ROK5,”, “2. Every day, clinical EAE was scored.” for “2.”

[6] = 100 μg mMOG35-55 in CFA s.c. base of tail, n=7
[7] = 200 μg mMOG35-55 in CFA s.c. base of tail, n=8

FSRVVHLYRNGKDQD (listed as Homo sapiens) [MOG 44-58, MOG peptide 44-58, apitope]
identification as apitope [1]: identified as apitopes

MBP [89-101]: myelin basic protein peptide 89-101, immunodominant antigen, not tolerogenic (PHLIRLFSRDAPG; UniProt P04370 89-101, looked up, fragment)
affinity of binding to I-A^S (I-A^S): relatively high affinity | induction of tolerance [2]: ineffective at inducing tolerance

MEVGWYRSPFSRVVHLYRNGK (listed as Mus musculus) [mMOG35-55, encephalitogenic MOG peptide used to induce EAE]
Incidence (EAE) (DR2 transgenic mice; [6]): 4/7 | Mean day of onset (EAE) (DR2 transgenic mice; [6]): 12.25 days | Incidence (EAE) (DR2 transgenic mice; [7]): 7/8 | Mean day of onset (EAE) (DR2 transgenic mice; [7]): 12 days | induction of EAE (DR2 transgenic mice; both doses (100 μg and 200 μg), FIGS. 5A, 5B): can induce EAE with a good incidence

PFSRVVHLYRNGKDQ (listed as Homo sapiens) [MOG 43-57, MOG peptide 43-57, apitope]
identification as apitope [1]: identified as apitopes

RPPFSRVVHLYRNGK (listed as Homo sapiens) [ROK5, human MOG peptide 41-55, apitope]
immune response to challenge with MOG 35-55 (recall proliferation, stimulation index) (HLA-DR2 transgenic mice [3]): able to suppress the immune response | production of GM-CSF by splenocytes (splenocytes): clearly affected | production of IFNγ by splenocytes (splenocytes): clearly affected | production of IL6 by splenocytes (splenocytes): clearly affected | production of IL-2 by splenocytes (splenocytes): clearly affected | efficiency of human ROK5 compared with mouse ROK5 in reducing EAE severity (HLA-DR2 transgenic mice [4]; 100 μg): more efficient | severity of the disease induced by MOG (clinical EAE score) (HLA-DR2 transgenic mice [4]): can reduce the severity of the disease | peak of disease burden (timing) (HLA-DR2 transgenic mice [5]): caused a delay in the peak of disease burden | severity of disease (clinical EAE score) (HLA-DR2 transgenic mice [5]): reduced the severity of disease | presentation by fixed APC to T cells without further processing (apitope) ([1]; 15-mer peptides displaced by 5aa, fixed APC): could be presented by fixed APC to T cells without further processing | identification as apitope [1]: identified as apitopes

RSPFSRVVHLYRNGK (listed as Mus musculus) [mouse ROK5, mouse MOG 41-55, serine in position 42]
severity of the disease induced by MOG (clinical EAE score) (HLA-DR2 transgenic mice [4]): can reduce the severity of the disease

SRVVHLYRNGKDQDG (listed as Homo sapiens) [MOG 45-59, MOG peptide 45-59, apitope]
identification as apitope [1]: identified as apitopes
